Test results published in patent US11660280B2, “Treatment of drug resistant gliomas” (OKLAHOMA MEDICAL RESEARCH FOUNDATION, priority 2017, dated 2023).
Structures can show the parent of a compound that is named as a salt.

Experiments:
[1] = in vivo; cited from earlier work
[2] = rats; cited from earlier work
[3] = tested on: C6 gliomas; conditions: rat C6 glioma, cited from earlier work
[4] = tested on: G55 cells; assay: IC50 TMZ sensitivity (50% growth inhibition, cell counts); type: cell-based; conditions: Homo sapiens, 72 h, TMZ alone
Description: (§1) Culture Collection (ATCC; Manassas, VA, USA) (U-138—ATCC (CRL-HTB-16) glioblastoma; LN-18—ATCC (CRL-2610) glioblastoma; LN-229—ATCC (CRL-2611) glioblastoma; and T-98G—ATCC—(CRL-1690). U-251 GBM cells were obtained from Sigma-Aldrich (N#09063001 also known before as U-373 MG (ATCC® HTB-17)). G55 cells were obtained from Dr. Michael Sughrue, who was a resident at Univ. of California San Francisco (originally obtained from C. David James (Department of Neurological Surgery, UCSF, CA, USA), who characterized the cells).
(§2) Cells were cultured in Dulbecco's modified Eagle's medium (DMEM, Gibco BRL, Crand Island, N.Y., USA) supplemented with 10% fetal bovine serum (Gibco) in a standard humidified incubator at 37° C. under 5% CO2.
(§3) IC50 concentrations—Protocol for TMZ sensitivity determination. […] Briefly, cells were plated at 1×10^4 cells per well in 24-well, flat-bottomed plates and incubated with medium for 24 hrs. The cells were subsequently washed twice with medium and incubated further with fresh medium (control) or medium containing 0.1-1,000 μM of TMZ. Per each plate contained growth medium with +/−TMZ there was a plate with medium containing 1 mM OKN. After exposure to the various concentrations of TMZ for 72 hrs, cells were detached by trypsinization and the numbers counted. The experiments were repeated at least 4 times at each concentration.

[5] = tested on: U251 cells; assay: as above; type: cell-based; conditions: Homo sapiens, U-251, TMZ alone, 72 hrs
Description: as §1, §2, §3

[6] = tested on: LN18 cells; assay: as above; type: cell-based; conditions: Homo sapiens, LN-18, TMZ alone, 72 hrs
Description: as §1, §2, §3

[7] = tested on: U138 cells; assay: as above; type: cell-based; conditions: Homo sapiens, TMZ alone, 72 hrs
Description: as §1, §2, §3

[8] = tested on: T98 cells; assay: as above; type: cell-based, human; conditions: TMZ alone
Description: as §1, §2, §3

[9] = tested on: LN229 cells; assay: as above; type: cell-based, human; conditions: TMZ alone
Description: as §1, §2, §3

[10] = patients; cited from earlier work
[11] = tested on: HIF-1α; assay: RT-PCR gene-fold changes in human GBM cells; type: cell-based
Description: (§4) Quantification of mRNA by real-time quantitative RT-PCR for HIF-1a, MPG and MGMT. Total RNA from all cell lines with all treatments was purified with an RNeasy Mini Kit (Qiagen), and quantified by spectrophotometry (Nanodrop). cDNA was synthesized using SuperScript IV Reverse Transcriptase Kit (Invitrogen).
(§5) Target gene mRNA was amplified and measured by Bio-Rad CFX96™ Real Time System. Gene expression was determined using the SYBR Select Master Mix (Applied Biosystems). […] The reaction is characterized by the point during cycling when amplification of PCR products is first detected, rather than the amount of PCR product accumulated after a fixed number of cycles. The higher the starting quantity of the template, the earlier a significant increase in fluorescence is observed. The threshold cycle is defined as the fractional cycle number at which fluorescence passes a fixed threshold above the baseline. Fluorescence data were converted into cycle threshold measurements exported to Microsoft Excel. Glyceraldehyde-3-phosphatase dehydrogenase (GAPDH) mRNA expression levels were used as the quantitative internal control. For precise quantification, the mRNA expression level of each sample was normalized using the expression of the GAPDH gene.
(§6) All primers were synthesized by Integrated DNA Technologies. The primers used were: […]

[12] = tested on: MGMT; assay: RT-PCR gene-fold changes in human GBM cells; type: cell-based
Description: as §4, §5, §6
(§7) were used to amplify 603-bp transcripts of MPG [9].

[13] = tested on: MPG; assay: RT-PCR gene-fold changes in human GBM cells; type: cell-based
Description: as §4, §5, §6, §7

[14] = tested on: MGMT; assay: ELISA protein level in human GBM cell lysates; type: cell-based
Description: (§8) ELISA for HIF-1a, MPG and MGMT. Protein expressions were assessed in all six glioma cell lines for all four groups of treatment (cell alone, cells with TMZ, cells with OKN, cells with combined OKN and TMZ). Cells were lysed before assaying. In brief, cells were washed by cold PBS gently, and then detached with trypsin, and collected by centrifugation at 1,000×g for 5 minutes. Then, cells were washed three times in cold PBS, then suspended in fresh lysis buffer. Lysates were centrifuged at 1,500×g for 10 minutes at 2-8° C. to remove cellular debris.
(§9) The assay is based on the sandwich ELISA principle. Each well of the supplied microtiter plate has been pre-coated with a target specific capture antibody. Standards or samples are added to the wells and the target antigen binds to the capture antibody. Unbound Standard or sample is washed away. A biotin-conjugated detection antibody is then added which binds to the captured antigen. Unbound detection antibody is washed away. An Avidin-Horseradish Peroxidase (HRP) conjugate is then added which binds to the biotin. Unbound Avidin-HRP conjugate is washed away. A TMB substrate is then added which reacts with the HRP enzyme resulting in color development. A sulfuric acid stop solution is added to terminate color development reaction and then the optical density (OD) of the well is measured at a wavelength of 450 nm±2 nm. The OD of an unknown sample can then be compared to an OD standard curve generated using known antigen concentrations in order to determine its antigen concentration.
(§10) The antigen concentration determined from ELISA was then normalized to the total protein concentration of each cell lysate in order to have comparison between groups. ELISA Kits for N-Methylpurine DNA Glycosylase (MPG) and for Hypoxia Inducible Factor 1 Alpha (HIF1a) were purchased from CLOUD-CLONE CORP.(CCC) and for Human MGMT from LifeSpan Biosciences, Inc.

[15] = tested on: HIF-1α; assay: ELISA protein level in human GBM cell lysates; type: cell-based
Description: as §8, §9, §10

[16] = tested on: MPG; assay: ELISA protein level in human GBM cell lysates; type: cell-based
Description: as §8, §9, §10

[17] = T98 cells (TMZ-resistant), UT 1.00
[18] = U251 cells (TMZ-sensitive), UT 1.00

## O=NN(CCCl)C(=O)NC1CCCCC1 [Lomustine, 1-(2-chloroethyl)-3-cyclohexyl-1-nitrosourea]
[1]
  crossing of the blood brain barrier: crosses the blood brain barrier

## CC(C)(C)[N+]([O-])=Cc1ccccc1 [PBN, phenyl N-tert-butyl nitrone]
[2]
  half-life: about 132 minutes
[3]; post-treatment
  tumors with reduced tumor growth: ~50%
[3]; pre-treatment
  tumors with reduced growth: > 80%
[1]
  crossing of the blood brain barrier: easily penetrate the BBB

## Cn1nnc2c(C(N)=O)ncn2c1=O [TMZ, Temozolomide, reference compound]
[4]; G55 (high) passage
  IC50: 94.3 µM
[4]; G55 (low) passage
  IC50: 567 µM
[5]
  IC50: 176 µM
[6]
  IC50: 774 µM
[7]
  IC50: 448 µM
[8]; Homo sapiens, T98, 72 h
  IC50: 438 µM
[8]; 72 hrs
  IC50: 447 µM
[9]; Homo sapiens, LN-229, 72 h
  IC50: 108 µM
[9]; 72 hrs
  IC50: ~100 µM
[10]
  incidence of severe nausea and vomiting (each): around 4%
[11]; G55 cells (TMZ-resistant), UT 1.00
  RT-PCR gene-fold change HIF-1α: 1.85 fold
[11]; LN18 cells (TMZ-resistant), UT 1.03
  RT-PCR gene-fold change HIF-1α: 2.11 fold
[11]; LN229 cells (TMZ-sensitive), UT 1.00
  RT-PCR gene-fold change HIF-1α: 1.41 fold
[11]; [17]
  RT-PCR gene-fold change HIF-1α: 1.72 fold
[11]; U138 cells (TMZ-resistant), UT 1.00
  RT-PCR gene-fold change HIF-1α: 2.05 fold
[11]; [18]
  RT-PCR gene-fold change HIF-1α: 1.48 fold
[12]; LN18 cells (TMZ-resistant), UT 1.06
  RT-PCR gene-fold change MGMT: 0.77 fold
[12]; [17]
  RT-PCR gene-fold change MGMT: 1.07 fold
[12]; [18]
  RT-PCR gene-fold change MGMT: 1.32 fold
[13]; G55 cells (TMZ-resistant), UT 1.06
  RT-PCR gene-fold change MPG: 2.53 fold
[13]; LN18 cells (TMZ-resistant), UT 1.00
  RT-PCR gene-fold change MPG: 2.95 fold
[13]; LN229 cells (TMZ-sensitive), UT 1.10
  RT-PCR gene-fold change MPG: 1.22 fold
[13]; T98 cells (TMZ-resistant), UT 1.10
  RT-PCR gene-fold change MPG: 1.22 fold
[13]; U138 cells (TMZ-resistant), UT 1.13
  RT-PCR gene-fold change MPG: 7.14 fold
[13]; U251 cells (TMZ-sensitive), UT 1.10
  RT-PCR gene-fold change MPG: 1.11 fold
[14]; G55 cells, UT 0.37
  ELISA protein level MGMT: 1.19 ng/mg cell lysate
[14]; LN18 cells, UT 1.23
  ELISA protein level MGMT: 1.28 ng/mg cell lysate
[14]; LN229 cells, UT 0.67
  ELISA protein level MGMT: 0.75 ng/mg cell lysate
[14]; T98 cells, UT 0.62
  ELISA protein level MGMT: 1.76 ng/mg cell lysate
[14]; U138 cells, UT 0.77
  ELISA protein level MGMT: 0.98 ng/mg cell lysate
[14]; U251 cells, UT 0.92
  ELISA protein level MGMT: 1.48 ng/mg cell lysate
[15]; G55 cells, UT 0.14
  ELISA protein level HIF-1α: 1.08 ng/mg cell lysate
[15]; LN18 cells, UT 0 76
  ELISA protein level HIF-1α: 0.83 ng/mg cell lysate
[15]; LN229 cells, UT 0.68
  ELISA protein level HIF-1α: 0.74 ng/mg cell lysate
[15]; T98 cells, UT 0.42
  ELISA protein level HIF-1α: 0.77 ng/mg cell lysate
[15]; U138 cells, UT 0.40
  ELISA protein level HIF-1α: 0.84 ng/mg cell lysate
[15]; U251 cells, UT 0.30
  ELISA protein level HIF-1α: 1.41 ng/mg cell lysate
[16]; G55 cells, UT 1.15
  ELISA protein level MPG: 1.50 ng/mg cell lysate
[16]; LN18 cells, UT 2.18
  ELISA protein level MPG: 2.27 ng/mg cell lysate
[16]; LN229 cells, UT 2.34
  ELISA protein level MPG: 1.93 ng/mg cell lysate
[16]; T98 cells, UT 3.04
  ELISA protein level MPG: 3.82 ng/mg cell lysate
[16]; U138 cells, UT 1.30
  ELISA protein level MPG: 1.50 ng/mg cell lysate
[16]; U251 cells, UT 2.70
  ELISA protein level MPG: 4.99 ng/mg cell lysate

## CC[C@]1(O)C[C@H]2CN(CCc3c([nH]c4ccccc34)[C@@](C(=O)OC)(c3cc4c(cc3OC)N(C=O)[C@H]3[C@@](O)(C(=O)OC)[C@H](OC(C)=O)[C@]5(CC)C=CCN6CC[C@]43[C@@H]65)C2)C1 [Vincristine, vincaleukoblastine, a 22-oxo-, sulfate (1:1) (salt)]
[1]
  crossing of the blood brain barrier: does not appear to cross the blood brain barrier
